In US20090253634A1, “Methods and Compositions for the Treatment of Gastrointestinal Disorders” (MICROBIA, INC., priority 2005, published 2009):
Ends that are not written are not given here.

Key:
gastrointestinal transit = assay: murine gastrointestinal transit (GIT) assay, acute and chronic dosing; assay type: in vivo, mice; conditions: for gastrointestinal transit rate: oral, SEQ ID NO:4 and Zelnorm 0.1 mg/kg, FIG. 3a, 3b; for intestinal transit rate, dose dependence: recombinantly synthesized peptides, FIG. 4a
Description: In order to determine whether the peptides increase the rate of gastrointestinal transit, the peptides and controls were tested using a murine gastrointestinal transit (GIT) assay (Moon et al. Infection and Immunity 25:127, 1979). In this assay, charcoal, which can be readily visualized in the gastrointestinal tract is administered to mice after the administration of a test compound. The distance traveled by the charcoal is measured and expressed as a percentage of the total length of the […].
Mice were fasted with free access to water for 12 to 16 hours before the treatment with peptide or control buffer. The peptides were orally administered at 1 μg/kg-1 mg/kg of peptide in buffer ([…] pH 7.5) 7 minutes before being given an oral dose of 5% Activated Carbon (Aldrich 242276-250G). Control mice were administered buffer only before being given a dose of Activated Carbon. After 15 minutes, the mice were sacrificed and their intestines from the stomach to the cecum were dissected. The total length of the intestine as well as the distance traveled from the stomach to the charcoal front was measured for each animal and the results are expressed as the percent of the total length of the intestine traveled by the charcoal front. All results are reported as the average of 10 mice±standard deviation. A comparison of the distance traveled by the charcoal between the mice treated with peptide versus the mice treated with vehicle alone was performed using a Student's t test and a statistically significant difference was considered for P<0.05. P-values are calculated using a two-sided T-Test assuming unequal variances.
The identical experiment was performed to determine if SEQ ID NO:3 is effective in a chronic dosing treatment regimen. Briefly, 8 week old CD1 female mice are dosed orally once a day for 5 days with either SEQ ID NO:3 (0.06 mg/kg or 0.25 mg/kg in 20 mM Tris pH 7.5) or vehicle alone (20 mM Tris pH 7.5). On the 5th day, a GIT assay is performed identical to that above except 200 μl of a 10% charcoal solution is administered. […] The results are shown side by side with acute dosing (1 day).

intestinal secretion = assay: suckling mouse model of intestinal secretion (SuMi assay); assay type: in vivo, suckling mice
Description: In this model a test compound is administered to suckling mice that are between 7 and 9 days old. After the mice are sacrificed, the gastrointestinal tract from the stomach to the cecum is dissected (“guts”). The remains (“carcass”) as well as the guts are weighed and the ratio of guts to carcass weight is calculated. If the ratio is above 0.09, one can conclude that the test compound increases intestinal secretion. […] The effect of Zelnorm® was also studied.

PBQ-induced writhing = assay: phenylbenzoquinone (PBQ)-induced writhing model
intestinal GC-C receptor = target: T1, intestinal GC-C receptor (Homo sapiens, UniProt P25092); assay: GC-C receptor activity assay (cyclic GMP) in T84 cells; assay type: cell-based; conditions: chemically synthesized peptides, cyclic GMP by EIA
T1 construct: monolayers of T84 cells in 24-well plates; host or cells: T84 human colon carcinoma cells
Description: The ability of SEQ ID NO:5, SEQ ID NO:4, SEQ ID NO:3, and SEQ ID NO:6 to activate the intestinal GC-C receptor was assessed in an assay employing the T84 human colon carcinoma cell line (American Type Culture Collection (Bethesda, Md.)). For the assays cells were grown to confluency in 24-well culture plates with a 1:1 mixture of Ham's F12 medium and Dulbecco's modified Eagle's medium (DMEM), supplemented with 5% fetal calf serum and were used at between passages 54 and 60.
Briefly, monolayers of T84 cells in 24-well plates were washed twice with 1 ml/well DMEM, then incubated at 37° C. for 10 min with 0.45 ml DMEM containing 1 mM isobutylmethylxanthine (IBMX), a cyclic nucleotide phosphodiesterase inhibitor, Test peptides (50 μl) were then added and incubated for 30 minutes at 37° C. The media was aspirated and the reaction was then terminated by the addition of ice cold 0.5 ml of 0.1N HCl. The samples were held on ice for 20 minutes and then evaporated to dryness using a heat gun or vacuum centrifugation.

[1] = target: T2, GC-C receptors found in rat intestinal mucosa (Rattus norvegicus, UniProt P23897); conditions: same assay, observed by Giannella et al.; cited from earlier work
T2 construct: Epithelial cells from the small intestine of rats were obtained; from tissue; host or cells: rat small-intestinal mucosa / epithelial cell suspension
T2 sequence (P23897 23-1072): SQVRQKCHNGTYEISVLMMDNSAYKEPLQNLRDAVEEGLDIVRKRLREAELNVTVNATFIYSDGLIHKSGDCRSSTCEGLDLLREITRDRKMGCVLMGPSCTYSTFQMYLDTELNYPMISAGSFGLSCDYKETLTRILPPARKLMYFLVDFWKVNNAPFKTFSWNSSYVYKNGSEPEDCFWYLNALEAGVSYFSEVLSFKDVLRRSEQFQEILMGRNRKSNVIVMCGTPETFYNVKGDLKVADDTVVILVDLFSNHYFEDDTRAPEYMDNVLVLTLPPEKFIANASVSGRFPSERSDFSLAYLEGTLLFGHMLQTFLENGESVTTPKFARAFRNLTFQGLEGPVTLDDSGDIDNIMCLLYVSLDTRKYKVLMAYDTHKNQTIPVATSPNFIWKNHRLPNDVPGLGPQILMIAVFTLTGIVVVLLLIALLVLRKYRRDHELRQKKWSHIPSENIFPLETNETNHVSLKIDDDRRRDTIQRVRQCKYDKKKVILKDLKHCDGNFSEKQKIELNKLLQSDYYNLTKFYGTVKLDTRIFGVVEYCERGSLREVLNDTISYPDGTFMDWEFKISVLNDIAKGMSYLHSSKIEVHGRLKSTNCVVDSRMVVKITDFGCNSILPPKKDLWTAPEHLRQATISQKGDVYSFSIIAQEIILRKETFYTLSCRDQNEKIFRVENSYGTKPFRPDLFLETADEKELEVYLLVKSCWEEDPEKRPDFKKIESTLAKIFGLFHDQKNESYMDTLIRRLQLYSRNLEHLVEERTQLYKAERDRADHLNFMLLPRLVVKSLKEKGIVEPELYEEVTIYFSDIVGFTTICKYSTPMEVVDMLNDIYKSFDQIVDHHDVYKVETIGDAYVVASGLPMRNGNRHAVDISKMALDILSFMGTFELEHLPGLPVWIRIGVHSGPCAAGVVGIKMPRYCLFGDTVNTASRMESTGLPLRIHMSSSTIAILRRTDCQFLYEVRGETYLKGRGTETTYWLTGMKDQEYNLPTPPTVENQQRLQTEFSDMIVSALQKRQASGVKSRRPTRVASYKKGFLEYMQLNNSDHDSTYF

[2] = recombinant peptides, dose response, FIG. 6a

T1 sequence (P25092 24-1073): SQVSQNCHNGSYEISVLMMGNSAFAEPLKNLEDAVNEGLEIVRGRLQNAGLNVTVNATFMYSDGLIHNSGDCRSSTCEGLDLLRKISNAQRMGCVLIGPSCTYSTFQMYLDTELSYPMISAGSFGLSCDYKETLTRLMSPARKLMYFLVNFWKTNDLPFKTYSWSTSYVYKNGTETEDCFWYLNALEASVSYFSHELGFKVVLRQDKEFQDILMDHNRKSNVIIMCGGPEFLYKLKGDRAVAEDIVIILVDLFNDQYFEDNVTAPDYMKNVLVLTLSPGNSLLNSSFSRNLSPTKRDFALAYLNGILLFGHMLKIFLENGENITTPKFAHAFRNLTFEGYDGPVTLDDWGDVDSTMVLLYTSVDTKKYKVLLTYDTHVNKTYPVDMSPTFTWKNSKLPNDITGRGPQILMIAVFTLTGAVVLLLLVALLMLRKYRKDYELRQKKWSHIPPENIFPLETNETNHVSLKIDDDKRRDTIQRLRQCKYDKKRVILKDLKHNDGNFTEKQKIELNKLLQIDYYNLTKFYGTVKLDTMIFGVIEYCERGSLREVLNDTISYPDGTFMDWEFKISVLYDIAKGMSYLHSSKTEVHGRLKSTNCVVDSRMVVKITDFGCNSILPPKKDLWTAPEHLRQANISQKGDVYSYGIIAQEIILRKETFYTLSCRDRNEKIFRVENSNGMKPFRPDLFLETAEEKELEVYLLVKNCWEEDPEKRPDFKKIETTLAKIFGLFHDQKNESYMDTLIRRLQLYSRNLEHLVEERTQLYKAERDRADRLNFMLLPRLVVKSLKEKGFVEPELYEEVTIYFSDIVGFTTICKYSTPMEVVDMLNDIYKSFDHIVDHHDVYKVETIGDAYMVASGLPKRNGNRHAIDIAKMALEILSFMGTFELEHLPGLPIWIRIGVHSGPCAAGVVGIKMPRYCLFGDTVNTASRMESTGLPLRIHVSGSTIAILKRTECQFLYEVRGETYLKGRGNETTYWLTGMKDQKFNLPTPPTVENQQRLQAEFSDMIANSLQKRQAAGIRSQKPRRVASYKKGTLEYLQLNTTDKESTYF

Row | Compound | gastrointestinal transit rate (gastrointestinal transit; acute) | effect in mouse gastrointestinal motility assay upon chronic dosing (gastrointestinal transit; oral once a day for 5 days, SEQ ID NO:3 0.06 or 0.25 mg/kg, FIG. 4c) | intestinal secretion (guts to carcass weight ratio) (intestinal secretion; 0.2 mg/kg) | intestinal transit rate, dose dependence (gastrointestinal transit; acute) | intestinal secretion (guts to carcass weight ratio) (intestinal secretion; [2]) | writhings versus vehicle control (PBQ-induced writhing; 1 mg/kg dose, oral) | antinociceptive effect compared with indomethacin (PBQ-induced writhing; PBQ writhing assay) | activity in GC-C receptor activity assay (intestinal GC-C receptor) | intestinal transit rates versus Tris buffer or equivalent dose of Zelnorm (gastrointestinal transit; acute, chemically synthesized peptides, FIG. 4b) | intestinal secretion (guts to carcass weight ratio) (intestinal secretion; dose response, wild-type ST purchased from TDT, FIG. 5a, 5b) | Kd [1]
1 | [H]/N=C(/NCCCCC)N/N=C/c1c[nH]c2ccc(OC)cc12 [Zelnorm®, tegaserod] | increase gastrointestinal transit rate | effective | does not increase intestinal secretion |  |  |  |  |  |  |  | 
2 | NSSNYCCEYCCNPACTGCY (cysteine pairing not given here) [SEQ ID NO:5] |  |  |  | increases with an increasing dosage | increase intestinal secretion | Significant reductions in writhings | antinociceptive effects in this visceral pain model comparable to the intermediate doses of indomethacin |  |  |  | 
3 | NSSNYCCELCCNPACTGCY [SEQ ID NO:4] | increase gastrointestinal transit rate |  |  | increases with an increasing dosage | increase intestinal secretion |  |  | activity comparable to SEQ ID NO:4 | increase intestinal transit rates more than either Tris buffer alone or an equivalent dose of Zelnorm® | increase intestinal secretion | ~13 nM
